Molecules are shown by their SMILES. pIC50: −log10 of the molar value.

Data set [1] concerns MDA-MB-436 breast cancer cell line. Briefly: Cell viability assay (MDA-MB-436). The class given is cell-based. Particulars: Homo sapiens, 144 h; MDA-MB-436 cells, treated 6 days. Put shortly: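 MDA-MB-436 breast cancer cells in DMEM/F12 with 10% FBS, treated 24 h after seeding with graded compound concentrations for 6 days at 37 °C, 5% CO2, medium changed every 3 days. Viability read with a fluorescence reagent; IC50 derived.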

The test system of data set [2] is Capan-1 pancreatic cancer cell line. Briefly: Cell viability assay (Capan-1). Conditions: Homo sapiens, 240 h; Capan-1 cells, treated 10 days. Type of data set: cell-based. Here is the method: 3. Cell Viability Assay (Capan-1)
Cell viability assay was performed by using Capan-1 cell line to measure cytotoxicity of compounds in the present invention. Capan-1 pancreatic cancer cell line was seeded into 96-well plates at 37° C. under 5% CO2 atmosphere using IMDM (Sigma) containing 10% FBS (Hyclone). After 24 hr incubation, cells were treated with the invented compounds at various concentrations for 10 days. After 7-day incubation, the medium was changed. 10 days later, A fluorescence reagent was used to determine the IC50 values.

The nature of data set [3]: Mouse pharmacokinetics. Particulars: Balb/c male mice, blood samples 15 to 1140 min, LC-MS/MS. Also on record: concentration or dose not given beside the values. The class given is in vivo. Here is the method: To evaluate the pharmacokinetics test, the invented compounds (from I-25 to I-1171) were determined as follows. Blood samples are collected at 15, 30, 60, 120, 240, 480, 1140 min. Quantification is by using a LC-MS/MS method specific to the selected compound. Pharmacokinetics parameters are calculated using WinNonLinnon compartmental analysis software.

For data set [4], the system named is LNCaP prostate cancer cell line. Briefly: Cell viability assay (LNCaP). The class given is cell-based. Particulars: Homo sapiens, 264 h; LNCaP cells, treated 11 days. The method, then: 4. Cell Viability Assay (LNCaP)
Cell viability assay was performed by using LNCaP cell line to measure cytotoxicity of compounds in the present invention. LNCaP prostate cancer cell line was seeded into 96-well plates at 37° C. under 5% CO2 atmosphere using RPMI-1640 (Hyclone) containing 10% FBS (Hyclone). After 24 hr incubation, cells were treated with the invented compounds at various concentrations for 11 days. The medium was changed every 3 to 4 day. 11 days later, A fluorescence reagent was used to determine the IC50 values.

For data set [5], the system named is Capan-1 Human pancreatic cancer cells. Briefly: In vivo antitumoral efficacy, Capan-1 subcutaneous xenograft. Particulars: Capan-1 xenograft in Balb/c nude mice. Here is the method: To evaluate the in vivo antitumoral efficacy, the invented compounds (I-80˜171) was determined as a result to follows.
Capan-1 Human pancreatic cancer cells were established as subcutaneous xenografts by injection of 8×10^6 cells into the flanks of adult female Balb/c nude mice. Mice with established tumors (160-250 mm^3) were selected for study (n=6/treatment group). The test compounds were formulated in DW and administered orally (po) at a dose of 30˜200 mg/kg. The vehicle alone was administered to control groups. Animals were dosed 5 days per week (Monday through Friday) for 3 consecutive weeks.
Animals were weighed and tumor size was determined twice weekly by caliper measurements, and tumor volumes were calculated (volume=[…] (mm^3), where l and w refer to the larger and smaller dimensions collected at each measurement). The mean tumor volumes of each group were calculated. The change in mean treated tumor volume was divided by the change in mean control tumor volume, multiplied by 100 and subtracted from 100% to give the tumor growth inhibition for each group.

[6] abbreviates: 100 mg/kg po qd x 5, 3 consecutive weeks.
Where [7] appears, read: 200 mg/kg po qd x 5, 3 consecutive weeks.

Take `O=C(c1cc(Cc2n[nH]c(=O)c3ccccc23)ccc1F)N1CC(NC2CCC2)C1` [Compound I-25, 4-(3-(3-(cyclobutylamino)azetidine-1-carbonyl)-4-fluorobenzyl)phthalazin-1(2H)-one]: the negative-log IC50 (pIC50) (commonly the IC50 on a negative log10 scale, so that one unit is a factor of ten) in data set [1] was 7.30 to 8.30; in data set [2] it was 6.00 to 6.52. Also, the AUC (as a rule, concentration integrated over time) in data set [3] is 831 ng·h/mL.

As to `O=C(c1cc(Cc2n[nH]c(=O)c3ccccc23)ccc1F)N1CC(NC2CC2)C1` [Compound I-26, 4-(3-(3-(cyclopropylamino)azetidine-1-carbonyl)-4-fluorobenzyl)phthalazin-1(2H)-one], the pIC50 is 7.30 to 8.30 in data set [1] and 6.00 to 6.52 in data set [2]. In addition, the AUC in data set [3] is 3350 ng·h/mL.

Compound `O=C(c1cc(Cc2n[nH]c(=O)c3ccccc23)ccc1F)N1CC[C@@H](NC2CCC2)C1` [Compound I-30, (R)-4-(3-(3-(cyclobutylamino)pyrrolidine-1-carbonyl)-4-fluorobenzyl)phthalazin-1(2H)-one] had a pIC50 in data set [1] of 6.52 to 7.30. The AUC in data set [3] was 521 ng·h/mL.

As for `CC(C)CNC1CN(C(=O)c2cc(Cc3n[nH]c(=O)c4ccccc34)ccc2F)C1` [Compound I-35, 4-(4-fluoro-3-(3-(isobutylamino)azetidine-1-carbonyl)benzyl)phthalazin-1(2H)-one], the pIC50 was no less than 8.30 in data set [1], 6.00 to 6.52 in data set [2] and less than 6.00 in data set [4]. The AUC in data set [3] was 2250 ng·h/mL.

As to `CCCCNC1CN(C(=O)c2cc(Cc3n[nH]c(=O)c4ccccc34)ccc2F)C1` [Compound I-53, 4-(3-(3-(butylamino)azetidine-1-carbonyl)-4-fluorobenzyl)phthalazin-1(2H)-one], the negative-log IC50 (pIC50) in data set [1] is no less than 8.30; in data set [2], 6.00 to 6.52; in data set [4], less than 6.00. This compound showed an AUC in data set [3] of 1250 ng·h/mL.

Take `O=C(c1cc(Cc2n[nH]c(=O)c3ccccc23)ccc1F)N1CC(N2CCC2)C1` [Compound I-75, 4-(3-([1,3′-biazetidine]-1′-carbonyl)-4-fluorobenzyl)phthalazin-1(2H)-one]: the pIC50 in data set [1] was 7.30 to 8.30. In data set [3], the AUC is 475 ng·h/mL.

`O=C(c1cc(Cc2n[nH]c(=O)c3ccccc23)ccc1F)N1CC(NC2(C(F)(F)F)CC2)C1` [Compound I-80, 4-(4-fluoro-3-(3-((1-(trifluoromethyl)cyclopropyl)amino)azetidine-1-carbonyl)benzyl)phthalazin-1(2H)-one]: the negative logarithm of the IC50 (pIC50) is no less than 8.30 in data set [1], 6.52 to 7.30 in data set [2] and 6.52 to 7.30 in data set [4]. Besides, the entries for the “% TGI” value in data set [5] (setting [6]) and in data set [5] (setting [7]) were 75.9% and 103.9%, respectively. The compound further showed an AUC in data set [3] of 2020 ng·h/mL.

Take `COC[C@@H](C)NC1CN(C(=O)c2cc(Cc3n[nH]c(=O)c4ccccc34)ccc2F)C1` [Compound I-83, (R)-4-(4-fluoro-3-(3-((1-methoxypropan-2-yl)amino)azetidine-1-carbonyl)benzyl)phthalazin-1(2H)-one]: the pIC50 is 7.30 to 8.30 in data set [1], 6.00 to 6.52 in data set [2] and less than 6.00 in data set [4]. Further, the AUC in data set [3] was 567 ng·h/mL.

The compound `O=C(c1cc(Cc2n[nH]c(=O)c3ccccc23)ccc1F)N1CC[C@@H](Nc2ncccn2)C1` [Compound I-120, (R)-4-(4-fluoro-3-(3-(Pyrimidin-2-ylamino)pyrrolidine-1-carbonyl)benzyl)phthalazin-1(2H)-one] showed a pIC50 in data set [1] of no less than 8.30. Moreover, in data set [3], the AUC was 510 ng·h/mL.

Take `O=C(c1cc(Cc2n[nH]c(=O)c3ccccc23)ccc1F)N1CC[C@@H](Nc2ccc(C(F)(F)F)cn2)C1` [Compound I-131, (R)-4-(4-fluoro-3-(3-((5-(trifluoromethyl)pyridin-2-yl)amino)pyrrolidine-1-carbonyl)benzyl)phthalazin-1(2H)-one]: the pIC50 in data set [1] was 6.52 to 7.30; in data set [4] it was 7.30 to 8.30.

Compound `O=C(c1cc(Cc2n[nH]c(=O)c3ccccc23)ccc1F)N1CC[C@@H](N2CCC2)C1` [Compound I-135, (R)-4-(3-(3-(azetidin-1-yl)pyrrolidine-1-carbonyl)-4-fluorobenzyl)phthalazin-1(2H)-one] showed a pIC50 in data set [1] of 7.30 to 8.30. Besides, in data set [3], the AUC was 153 ng·h/mL.

Consider `O=C(c1cc(Cc2n[nH]c(=O)c3ccccc23)ccc1F)N1CC(CN2CCCC2)C1` [Compound I-140, 4-(4-fluoro-3-(3-(pyrrolidin-1-ylmethyl)azetidine-1-carbonyl)benzyl)phthalazin-1(2H)-one], for which the pIC50 is no less than 8.30 in data set [1] and 6.00 to 6.52 in data set [2]. For the same compound, in data set [3], the AUC was 295 ng·h/mL.

Consider `O=C(c1cc(Cc2n[nH]c(=O)c3ccccc23)ccc1F)N1CC(CN2CCCCC2)C1` [Compound I-141, 4-(4-fluoro-3-(3-(piperidin-1-ylmethyl)azetidine-1-carbonyl)benzyl)phthalazin-1(2H)-one], for which the pIC50 is 7.30 to 8.30 in data set [1] and 6.00 to 6.52 in data set [2]. In addition, the AUC in data set [3] is 193 ng·h/mL.

Regarding `O=C(c1cc(Cc2n[nH]c(=O)c3ccccc23)ccc1F)N1CC(CN2CCC2)C1` [Compound I-142, 4-(3-(3-(azetidin-1-ylmethyl)azetidine-1-carbonyl)-4-fluorobenzyl)phthalazin-1(2H)-one], the results for the pIC50 in data set [1] and in data set [2] were 7.30 to 8.30 and 6.00 to 6.52, respectively. The compound further showed an AUC in data set [3] of 88.8 ng·h/mL.

As for `O=C(c1cc(Cc2n[nH]c(=O)c3ccccc23)ccc1F)N1CC(CNC2CC2)C1` [Compound I-143, 4-(3-(3-((cyclopropylamino)methyl)azetidine-1-carbonyl)-4-fluorobenzyl)phthalazin-1(2H)-one], the pIC50 was no less than 8.30 in data set [1] and 6.52 to 7.30 in data set [2]. The compound further showed an AUC in data set [3] of 673 ng·h/mL.

Turning to `CC(C)CNCC1CN(C(=O)c2cc(Cc3n[nH]c(=O)c4ccccc34)ccc2F)C1` [Compound I-146, 4-(4-fluoro-3-(3-((isobutylamino)methyl)azetidine-1-carbonyl)benzyl)phthalazin-1(2H)-one], the pIC50 in data set [1] is 7.30 to 8.30; in data set [2], 6.00 to 6.52; in data set [4] it was less than 6.00. This compound showed an AUC in data set [3] of 1090 ng·h/mL.

As to `O=C(c1cc(Cc2n[nH]c(=O)c3ccccc23)ccc1F)N1CC(CNC2CCC2)C1` [Compound I-148, 4-(3-(3-((cyclobutylamino)methyl)azetidine-1-carbonyl)-4-fluorobenzyl)phthalazin-1(2H)-one], the pIC50 in data set [1] is no less than 8.30. This compound also gave an AUC in data set [3] of 472 ng·h/mL.

As to `C#CCNCC1CN(C(=O)c2cc(Cc3n[nH]c(=O)c4ccccc34)ccc2F)C1` [Compound I-149, 4-(4-fluoro-3-(3-((prop-2-yn-1-ylamino)methyl)azetidine-1-carbonyl)benzyl)phthalazin-1(2H)-one], the pIC50 in data set [1] was no less than 8.30; in data set [2] it was 6.00 to 6.52; in data set [4], less than 6.00. Further, the AUC in data set [3] was 169 ng·h/mL.

`Cl.O=C(c1cc(Cc2n[nH]c(=O)c3ccccc23)ccc1F)N1CC(NC2CCCC2)C1` [Compound I-158, 4-(3-(3-(cyclopentylamino)azetidine-1-carbonyl)-4-fluorobenzyl)phthalazin-1(2H)-one hydrochloride]: the “% TGI” value in data set [5] (setting [6]) was determined as 44.9%; in data set [5] (setting [7]), 80.9%.

Take `Cl.O=C(c1cc(Cc2n[nH]c(=O)c3ccccc23)ccc1F)N1CC(NCC2CC2)C1` [Compound I-160, 4-(3-(3-((cyclopropylmethyl)amino)azetidine-1-carbonyl)-4-fluorobenzyl)phthalazin-1(2H)-one hydrochloride]: the “% TGI” value stood at 55.8% in data set [5] (setting [6]) and 88.2% in data set [5] (setting [7]). The AUC in data set [3] was 2250 ng·h/mL.

These data come from patent US9844550B2, “Phtalazinone derivatives and manufacturing process thereof” (ILDONG PHARM CO., LTD., priority 2013, dated 2017).
